Source: paper PMC4640224, “Phosphorylation of a splice variant of collapsin response mediator protein 2 in the nucleus of tumour cells links cyclin dependent kinase-5 to oncogenesis” (BMC Cancer, 2015)
Values belong to the molecule of their own block, whether it stands above or below them.

Legend:
[1] = test system: CMGC protein kinase family; assay: Peptide phosphorylation by several members of the CMGC kinase family (selectivity); type: biochemical; details: 50 μM peptide, 2 mUnits of each kinase, 30 min, Fig. 1d
Description: (§1) Specific activity (pmol/min) was determined for all protein kinases by incubating known amounts of kinase (0.01-1 μg) with the generic substrate myelin basic protein (MBP, 0.3 mg/ml final) in kinase buffer (25 mM MOPS pH 7.5, 0.05 % (v/v) Brij-35, 0.25 mM EDTA, 5 % (v/v) glycerol) plus 10 mM MgCl2, and 100 μM [γ-32P] ATP (approx 0.5 × 10^6 CPM/nmol) as previously described. Peptide kinase assays were performed with 2mUnits of each kinase as above, except MBP was replaced with the peptide at the concentration given in figure legends. One unit of activity of each protein kinase was calculated as 1 nmole of phosphate transferred/min.
(§2) Fig. 1 In vitro analysis of primary sequence determinants for p35/CDK5 and p25/CDK5. a The contribution of C-terminal Arg/Lys residues to recognition and phosphorylation by each CDK5 complex was assessed by incubating the peptides at the indicated concentrations with 2 m units of each CDK5 complex for 20 mins and measuring phosphate transferred to each peptide. b Each CDK5 complex was incubated for 20 mins with 100 μM of the indicated peptides representing the primary sequence of the 4 classes of CDK5 substrates. The phosphorylated residue is underlined. c To assess the contribution of specific residues ±2 positions from the target residue a further 4 peptides (at 100 μM) were incubated with 2mUnits of each CDK5 complex for 30 mins. The residue changed from the parent sequence (peptide 1.0) is in italics in each case. *indicates p < 0.05 compared to peptide 1.0. d The rate of phosphorylation of the indicated peptides by several members of the CMGC family of kinases was compared by incubating each peptide (at 50 μM) with 2 m units (as determined against the generic substrate MBP) of each kinase for 30 mins and phosphate transfer measured. In all figures the data is presented as the average of at least two different experiments performed in duplicate ± the SEM, and is given as total picomoles transferred during the assay (a) or pmoles transferred/min (b-d)

CDK5 = test system: CDK5; set-up: method as in PMID 19075597; details: application of carboplatin; cited from earlier work
p35/CDK5 [2] = target: T1, p35/CDK5 (Homo sapiens, UniProt Q00535+Q15078); assay: Phosphorylation kinetics of recombinant protein substrates by p35/Cdk5; type: biochemical; details: initial rate, varying substrate concentrations, Mg[γ-32P]ATP, 10 min, 30 °C, Lineweaver-Burk, ND = not determinable, not phosphorylated to a significant level; for Vmax: at least two experiments in duplicate
T1 construct: purchased Millipore UK Ltd, Herts, UK
Description: (§3) Recombinant protein substrates were incubated with 2mUnits of each CMGC kinase as for MBP above for the times and at the concentrations given in figure legends. Reactions were terminated by the addition of SDS-PAGE loading buffer and heating to 70 °C for 15 mins. Aliquots were subjected to SDS-PAGE, stained with Coomassie Brilliant Blue (CBR-250), the gels were dried and radiolabeled bands visualized by autoradiography. Quantification of nmoles of phosphate incorporated was obtained by excising the stained protein band from the gel and counting in scintillation fluid.

p25/CDK5 [3] = target: T2, p25/CDK5 (Homo sapiens, UniProt Q00535+Q15078); assay: Phosphorylation kinetics of recombinant protein substrates by p25/Cdk5; type: biochemical; details: initial rate, varying substrate concentrations, Mg[γ-32P]ATP, 10 min, 30 °C, Lineweaver-Burk, ND = not determinable, not phosphorylated to a significant level; for Vmax: at least two experiments in duplicate
T2 construct: purchased Millipore UK Ltd, Herts, UK
Description: as §3

p35/CDK5 [4] = target: T1, p35/CDK5; assay: Peptide kinase assay with p35/CDK5; type: biochemical; details: 100 μM peptide; for Rate of phosphorylation compared with related peptides, in words: 1.0 versus 1.1 and 1.2, 1.4 versus 1.3; for Phosphorylation of substrate class peptides, in words: 20 min, Fig. 1b
Description: as §1, §2

p25/CDK5 [5] = target: T2, p25/CDK5; assay: Peptide kinase assay with p25/CDK5; type: biochemical; details: 100 μM peptide; for Rate of phosphorylation compared with related peptides, in words: 1.0 versus 1.1 and 1.2, 1.4 versus 1.3; for Phosphorylation of substrate class peptides, in words: 20 min, Fig. 1b
Description: as §1, §2

MDA-MB321 = MDA-MB321 breast cancer cell line; cited from earlier work
Excerpt: (§4) Similarly, CDK5 levels decrease in gastric cancer and its nuclear accumulation suppresses gastric tumorigenesis.

MCF-7 = MCF-7 breast cancer cell line; cited from earlier work
Excerpt: as §4

PICTAIRE = assay: Peptide kinase assay with […]; type: biochemical; details: 50 μM peptide, 2 mUnits kinase, 30 min, Fig. 1d
Description: as §1
Fig. 1 In vitro analysis of primary sequence determinants for p35/CDK5 and p25/CDK5. a The contribution of C-terminal Arg/Lys residues to recognition and phosphorylation by each CDK5 complex was assessed by incubating the peptides at the indicated concentrations with 2 m units of each CDK5 complex for 20 mins and measuring phosphate transferred to each peptide. b Each CDK5 complex was incubated for 20 mins with 100 μM of the indicated peptides representing the primary sequence of the 4 classes of CDK5 substrates. The phosphorylated residue is underlined. c To assess the contribution of specific residues ±2 positions from the target residue a further 4 peptides (at 100 μM) were incubated with 2mUnits of each CDK5 complex for 30 mins. […]

[6] = test system: CDK5 substrate phosphorylation in primary cortical neurons; assay: Immunofluorescence of CDK5 substrate phosphorylation in primary cortical neurons; type: cell-based, rat; details: 10 μM inhibitor, 3 h, neurons 6 days in vitro, Fig. 3a
Description: Embryonic primary cortical neurons were isolated from Sprague–Dawley rats at day 18 gestation. Briefly, following dissection, cortex was digested in 0.25 % trypsin in Hank’s balanced salt solution at 37 °C for 20 min. Cells were manually dissociated by trituration using a fire-polished Pasteur pipette and plated onto 0.01 % poly-l-lysine-coated coverslips at a density of 2–5 × 10^6 cells per 6 cm well, then incubated at 37 °C with 5 % CO2 in Neurobasal medium (Gibco) containing 2 % (vol/vol) B27 serum replacement (Invitrogen), penicillin (Sigma; 100 units/ml), streptomycin (Sigma; 100 μg/ml), and 1 % (vol/vol) L-glutamine (Sigma). HeLa and tumour cell lines were maintained in DMEM supplemented with 4.5 g/L glucose, 10 % (vol/vol) FCS, 1 % (vol/vol) penicillin (100 units/ml)/streptomycin (100 μg/ml) at 37 °C in 5 % CO2. […]
Fig. 3 Imaging of CDK5 substrate phosphorylaiton in primary cells. […] Phosphospecific antibodies were detected by Cy-3 bound 2ry antibodies (red) and nuclei were counter-stained with the DNA-binding dye DAPI (blue). […]

[7] = test system: CDK5 substrate phosphorylation in primary cortical neurons; assay: Immunohistochemistry of CDK5 substrate phosphorylation in paraffin-embedded primary neurons; type: cell-based, rat; details: 10 μM inhibitor, 3 h, formaldehyde fixed, Fig. 3b
Description: Sections of formalin-fixed, paraffin embedded tissue were cut at a thickness of 4 μm, collected onto Polysine-coated microscope slides (VWR International) and dried overnight at 37 °C. Sections were dewaxed in Histoclear, rinsed in alcohol and endogenous peroxidase was quenched with 0.5 % hydrogen peroxide (100 volumes) in methanol at room temperature for 35 min. After washing in water, antigen retrieval was performed by boiling sections in 10 mM citrate buffer, pH 6.0 for 15 min in a microwave. After cooling, sections were rinsed in PBS and blocked with 5 % normal serum in PBS containing 5 % (v/v) avidin (Vector Laboratories, Peterborough, UK) for 30 min at room temperature. Sections were washed in PBS and incubated with primary antibody in 5 % normal serum in PBS containing 5 % (v/v) biotin at 4 °C overnight. After washing in PBS, sections were then incubated with biotinylated secondary antibody (1:250) (Vector Laboratories) for 30 min at room temperature, followed by streptavidin complexed with biotinylated peroxidase (Vectastain ABC kit; Vector Laboratories) at room temperature for 30 min. […] Cell nuclei were counterstained with haematoxylin (Sigma), dehydrated through graded alcohols, cleared in HistoClear and mounted in DPX. Images were taken using a Spot Insight QE digital camera or slides were digitally scanned (x40) using an Aperio ScanScope XT.

p25/CDK5 [8] = target: T2, p25/CDK5; type: biochemical; details: inhibitor 10 μM, 30 min pre-incubation, GST-tau 0.5 μM, 2 mUnits kinase, Fig. 2b
Description: as §3
(§5) Recombinant protein substrates (0.5 μM final concentration) were incubated with 2mUnits of each CDK5 complex and MgCl2 and [γ-32P] ATP (approx 0.5x10^6 CPM/nmole) for 30 mins. Reactions were terminated by the addition of SDS-PAGE loading buffer and heating to 70 °C. […] Data is representative of at least three different experiments

p35/CDK5 [9] = target: T1, p35/CDK5; type: biochemical; details: inhibitor 10 μM, 30 min pre-incubation, GST-tau 0.5 μM, 2 mUnits kinase, Fig. 2b
Description: as §3, §5

T1 sequence (Q00535 whole entry): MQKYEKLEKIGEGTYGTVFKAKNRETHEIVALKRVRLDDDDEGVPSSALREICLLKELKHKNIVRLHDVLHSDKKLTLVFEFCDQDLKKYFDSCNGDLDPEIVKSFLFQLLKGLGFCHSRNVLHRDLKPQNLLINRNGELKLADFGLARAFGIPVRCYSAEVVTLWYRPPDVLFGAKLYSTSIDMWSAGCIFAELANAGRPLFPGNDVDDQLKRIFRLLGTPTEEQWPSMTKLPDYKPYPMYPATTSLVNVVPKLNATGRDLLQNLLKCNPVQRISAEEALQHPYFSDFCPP
T1 sequence (Q15078 whole entry partner): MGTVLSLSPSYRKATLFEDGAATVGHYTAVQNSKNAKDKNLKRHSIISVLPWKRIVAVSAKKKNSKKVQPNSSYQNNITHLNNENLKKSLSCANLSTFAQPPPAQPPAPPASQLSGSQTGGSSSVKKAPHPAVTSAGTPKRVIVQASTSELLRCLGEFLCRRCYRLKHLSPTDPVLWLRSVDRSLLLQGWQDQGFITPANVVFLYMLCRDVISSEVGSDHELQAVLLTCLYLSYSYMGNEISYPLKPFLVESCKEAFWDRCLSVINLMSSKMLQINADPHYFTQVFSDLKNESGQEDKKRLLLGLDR
T2 sequence (Q00535 whole entry): as the sequence (Q00535 whole entry) above
T2 sequence (Q15078 99-307 partner limits assumed): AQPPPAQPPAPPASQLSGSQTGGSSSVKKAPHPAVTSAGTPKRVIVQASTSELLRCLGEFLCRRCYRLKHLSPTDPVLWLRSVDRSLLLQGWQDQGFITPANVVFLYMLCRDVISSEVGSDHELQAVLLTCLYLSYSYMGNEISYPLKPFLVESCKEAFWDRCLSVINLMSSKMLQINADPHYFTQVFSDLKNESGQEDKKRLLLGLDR

Molecule: N.N.O=C([O-])C1(C(=O)[O-])CCC1.[Pt+2] [carboplatin]
- Effect on CDK5 activity (CDK5): induces CDK5 activation

Molecule: CRMP1: recombinant collapsin response mediator protein 1, proposed CDK5 substrate
- Km (p35/CDK5 [2]): 1.26 µM
- Vmax (p35/CDK5 [2]): 0.735 pmol/min
- Km (p25/CDK5 [3]): 1.46 µM
- Vmax (p25/CDK5 [3]): 0.191 pmol/min

Molecule: KKPKSRRSPPSIPT [Class 3]
- Phosphorylation of substrate class peptides, in words (p35/CDK5 [4]): not phosphorylated
- Phosphorylation of substrate class peptides, in words (p25/CDK5 [5]): not phosphorylated

Molecule: CC[C@H](CO)Nc1nc(NCc2ccccc2)c2ncn(C(C)C)c2n1 [roscovitine]
- Effect on proliferation (MDA-MB321): enhances the proliferation
- Effect on proliferation (MCF-7): enhances the proliferation

Molecule: KKENNVLSPLPSQA [Class 4]
- Phosphorylation of substrate class peptides, in words (p35/CDK5 [4]): not phosphorylated
- Phosphorylation of substrate class peptides, in words (p25/CDK5 [5]): not phosphorylated

Molecule: CC(C)[C@H](CO)Nc1nc(Nc2cccc(Cl)c2)c2ncn(C(C)C)c2n1 [purvalanol A]
- CRMP2 phosphorylation at Ser522 (immunofluorescence) [6]: reduces
- CRMP4 phosphorylation at Ser522 (immunofluorescence) [6]: does not alter
- Intensity of staining and number of cells stained for phospho-Ser522 of CRMP2 (immunohistochemistry) [7]: reduced
- Tau phosphorylation at Ser235 (immunohistochemistry) [7]: not significantly affected
- Tau phosphorylation at Thr205 (immunohistochemistry) [7]: not significantly affected
- Effect of CDK inhibitor on tau phosphorylation in vitro (p25/CDK5 [8]): completely blocked
- Effect of CDK inhibitor on tau phosphorylation in vitro (p35/CDK5 [9]): completely blocked

Molecule: KKASAPVSPPRDRK [Class 2]
- Phosphorylation of substrate class peptides, in words (p35/CDK5 [4]): relatively poor substrate
- Phosphorylation of substrate class peptides, in words (p25/CDK5 [5]): relatively poor substrate

Molecule: CRMP4: recombinant collapsin response mediator protein 4, proposed CDK5 substrate
- Km (p35/CDK5 [2]): 0.401 µM
- Vmax (p35/CDK5 [2]): 0.665 pmol/min
- Km (p25/CDK5 [3]): 0.252 µM
- Vmax (p25/CDK5 [3]): 0.155 pmol/min

More lines, now with the values ahead:

- Selectivity of peptide substrate among CMGC kinases, in words [1]: CDK5 is the most effective kinase
Molecule: KKASAPVSPRKPRS [peptide 1.2]

- Rate of phosphorylation compared with related peptides, in words (p35/CDK5 [4]; 2 mUnits, 30 min, Fig. 1c): did not restore phosphorylation
- Rate of phosphorylation compared with related peptides, in words (p25/CDK5 [5]; 2 mUnits, 30 min, Fig. 1c): did not restore phosphorylation
Molecule: KKASAAKSPPKPRS [peptide 1.4]

- Reduction of rate of phosphorylation compared to peptide 1.0 and 1.1 (p35/CDK5 [4]; 2 mUnits, 30 min, Fig. 1c): > 90%
- Phosphorylation by PICTAIRE compared with CDK5, in words (PICTAIRE): to a greater extent than CDK5
- Reduction of rate of phosphorylation compared to peptide 1.0 and 1.1 (p25/CDK5 [5]; 2 mUnits, 30 min, Fig. 1c): > 90%
Molecule: KKASAPKSPPKPRS [peptide 1.3]

- Selectivity of peptide substrate among CMGC kinases, in words [1]: CDK5 is the most effective kinase
Molecule: KKASAPKSPARPRS [peptide 1.1]

- Selectivity of peptide substrate among CMGC kinases, in words [1]: highly selective for CDK5
- Rate of phosphorylation compared with related peptides, in words (p35/CDK5 [4]; 2 mUnits, 30 min, Fig. 1c): twice the rate
- Phosphorylation of substrate class peptides, in words (p35/CDK5 [4]): much better substrates
- Phosphorylation by PICTAIRE relative to a matched amount of MBP kinase activity of CDK5 (PICTAIRE): < 80%
- Rate of phosphorylation compared with related peptides, in words (p25/CDK5 [5]; 2 mUnits, 30 min, Fig. 1c): twice the rate
- Phosphorylation of substrate class peptides, in words (p25/CDK5 [5]): much better substrates
Molecule: KKASAPKSPRKPRS [peptide 1.0]
